# Measured values reported in publication PMC12040169 (PLOS Biology, 2025).
# Experiment: in vitro
# Details: human, hela cells, % viability
row,SMILES,"viability at 28.5 h, 10 µM"
1,COc1ccc([C@@]23CC/C(=N/NS(=O)(=O)c4ccc(C)cc4)C[C@@H]2N(Cc2ccccc2)CC3)cc1OC [CBK002717],95.5%
2,O=C(O)CCn1c(=O)cc(C(F)F)c2cn(Cc3ccccc3)nc21 [CBK286881],91.3%
3,Cc1ccc2nc(CNC(=O)CN(C)C3CCNCC3)cn2c1 [CBK307228],96.6%
4,Clc1ccccc1-c1cn2ccnc2c(NCc2cccnc2)n1 [CBK038039],94.5%
5,O=C(O)c1ccc(-c2ccc(OC(F)(F)F)cc2)nc1 [CBK160173T],90.6%
6,O=C1CCCCC1SCn1nnc2ccccc21 (stereo not drawn) [CBK011412],94.8%
7,O=C(C1CC1)N1C2CCC1CC(O)(Cn1ccc3ccncc31)C2 (stereo not drawn) [CBK284652],90.4%
8,Cc1ccc(S(=O)(=O)CC(=O)N2CCCC3(CCN(C(=O)Cc4c[nH]c5ccccc45)C3)C2)cc1 (stereo not drawn) [CBK131595],90.4%
9,CC(=O)N/C(=C\c1ccccc1)C(=O)NC(C)C(=O)O (stereo not drawn) [CBK261491],99.1%
10,COc1ccc(C(=O)N2CCC3(CCN(C(=O)c4cccc(C#N)c4)C3)C2)cc1OC (stereo not drawn) [CBK131773],98.3%
11,Cc1ccc(O)c(NC(=O)COc2ccc(Cl)cc2)c1 [CBK268670],108%
12,Cn1cnc(S(=O)(=O)Nc2cccc3cc[nH]c23)c1 [CBK159554],94%
13,N#Cc1c(-c2ccccc2)cc(-c2ccccc2)nc1SCC(=O)O [CBK131684],92.6%
14,CCN(CC)C(=O)CNS(=O)(=O)c1ccc(OC)c(OC)c1 [CBK034499],103%
15,COC(=O)[C@H]1CN(C(=O)c2scnc2C)C[C@@H]1c1ccc(F)cc1 [CBK283520],104%
16,Nc1nc(COn2c(-c3ccccc3)nc3ccccc3c2=O)nc(-c2ccccc2O)n1 [CBK266689],98.6%
17,O=C(CSc1nsc(SCC(=O)c2ccccc2)n1)c1ccccc1 [CBK264142],120%
18,Cc1cc(C)n(CC(=O)N2CCC(c3cc4cccnc4[nH]3)CC2)n1 [CBK284999],91.3%
19,COc1ccc(C(=O)Nc2ccc3c(c2)nc2n3CCN(Cc3ccccc3)C2)cc1 [CBK266820],82.5%
20,OCCCNc1nccnc1-c1ccccc1Cl [CBK038092],81.6%
21,O=C1CCCN1CC(=O)N1CCCC(c2cc3ccccc3cn2)C1 (stereo not drawn) [CBK285091],99.7%
22,O=C1CCCCCC1C(Nc1ccc2ccccc2c1)c1cccnc1 (stereo not drawn) [CBK293919],86.4%

row,SMILES,"viability at 28.5 h, 10 µM"
1,Cc1ccc(NC(=O)CN2C(=O)S/C(=C/c3ccc(-c4ccc(Cl)c(C(=O)O)c4)o3)C2=O)cc1 [CBK078256],86.3%
2,O=[N+]([O-])c1ccc(-c2nc(NCc3cccnc3)c3ccccc3n2)cc1 [CBK264788],100%
3,COc1ccccc1CN(C1CCNCC1)S(=O)(=O)c1c(Cl)cccc1Cl [CBK160807T],89.2%
4,CCCNC(=O)Cn1c(=O)n(Cc2cccs2)c2ncccc21 [CBK283843],101%
5,CC(C)c1ccc(OCC(=O)NNC(=O)c2ccco2)c(Br)c1 [CBK267224],86.7%
6,CC(C)(C)OC(=O)N1CCc2[nH]nc(Nc3ccccc3)c2C1 [CBK281541],80%
7,CC(C)Nc1cc(Sc2ccccc2N)ncn1 [CBK093729],91.6%
8,C=CCN1CCC2(CC1)CN(C(C)=O)Cc1cc(C)ccc1O2 [CBK282693],97.5%
9,Cc1ccc(N(CC(O)CN2CCCC2)S(=O)(=O)c2ccccc2)cc1 (stereo not drawn) [CBK264739],101%
10,CC(C)OCC1CN(c2cc(CO)c(F)cn2)CCO1 (stereo not drawn) [CBK304755],89.7%
11,NC(=O)CN1C(=O)CO[C@H]2CN(Cc3ccccc3F)C[C@H]21 [CBK289693],114%
12,COC(=O)c1ccc(N2C(=O)CC(SCCc3nc4ccccc4[nH]3)C2=O)cc1 (stereo not drawn) [CBK267188],88.5%
13,COc1cccc(CC(=O)NCc2ccccc2OC2CCNC2)c1 (stereo not drawn) [CBK024487T],88.5%
14,COc1ccccc1NC(=S)NCCN(C)C [CBK265343],111%
15,CS(=O)(=O)c1ccc(Cn2c(=O)n(S(=O)(=O)c3ccccc3)c3ccccc32)cc1 [CBK106530],95.1%
16,CC(C)C(C(=O)Nc1ccc(S(=O)(=O)N2CCOCC2)cc1)N1C(=O)c2ccccc2C1=O (stereo not drawn) [CBK265607],97.6%
17,CCn1cc(CN(C)Cc2nccs2)c2cc(C(=O)O)ncc21 [CBK306512],85.3%
18,Cc1cc(Cl)c(S(=O)(=O)NCc2ccccc2)cc1OCC(N)=O [CBK266588],104%
19,Nc1ncc(-c2cccc(C(=O)O)c2)nc1-c1ccc(O)cc1 [CBK200420],107%
20,CC(C)(C)OC(=O)N1CCC(CNCc2c[nH]c(-c3ccccc3)n2)CC1 [CBK056718],94.3%
21,Cn1ncc(N2CCC(CNC(=O)Cc3ccc(O)c(Cl)c3)C2)cc1=O (stereo not drawn) [CBK307689],113%
22,O=S1(=O)CCN(Cc2ccc3c(c2)OCCCO3)CC1 [CBK074831],101%

row,SMILES,"viability at 28.5 h, 10 µM"
1,COc1ccccc1-c1c(O)n[nH]c1CCC1CCCC1 [CBK075128],97.5%
2,COc1ccccc1-c1ccc(CC2(C(=O)NCCc3ccc(F)cc3)CCOCC2)cc1 [CBK286520],94.4%
3,COc1ccc(N2C(=O)c3ccccc3NC2c2cccc(OCC(=O)Nc3ccccc3)c2)cc1 (stereo not drawn) [CBK265406],108%
4,COCC(=O)NC(Cc1cccs1)c1nc(C)cs1 (stereo not drawn) [CBK285004],87.3%
5,COc1cccc(OC)c1OCCN1CCC(CNC(=O)Nc2cccc(C(F)(F)F)c2)CC1 [CBK051512T],96.7%
6,COc1ccc(-n2nc3cc(C)c(NC(=O)c4ccc(-c5ccc([N+](=O)[O-])cc5OC)o4)cc3n2)cc1 [CBK263766],99.3%
7,COc1ccc([C@@]23CC[C@@H](NC(=O)Nc4cccc5nsnc45)C[C@@H]2N(C)CC3)cc1OC [CBK038874T],86.8%
8,CCCCNC(=O)c1ccc2nc(C)c(N(C)CC3CCCCC3)n2c1 [CBK145913],99.6%
9,Cc1noc(C)c1C(=O)N1CCCCCC1c1c(Cl)cnn1C (stereo not drawn) [CBK284918],93.3%
10,O=C(c1ccoc1)N1CCC2(CCCN(Cc3ccc(OC(F)(F)F)cc3)C2)C1 (stereo not drawn) [CBK132801],114%
11,CN1CCN(Cc2c(C3CCCC3)[nH]c3ncccc23)CC1 [CBK285336],88.6%
12,Cn1c(COc2ccccc2Cl)nnc1SCC(=O)N1c2ccccc2Sc2ccccc21 [CBK266001],96.5%
13,CC(C)(C)c1ccc(OCC(O)CSc2nnc[nH]2)cc1 (stereo not drawn) [CBK261776],103%
14,C=CCNC(=O)C1CCN(c2nc3ccccc3n2C)CC1 [CBK283955],92%
15,COc1c(Cl)cc(Cl)cc1CNCCCN1CCOCC1 [CBK278165C],88.8%
16,O=C(NC(c1ccc(Cl)cc1)c1cnccn1)C1CCN(C(=O)c2ccccc2)CC1 (stereo not drawn) [CBK059634],109%
17,CCOC(=O)C1CCCN(Cc2ccc3c(c2)OCO3)C1 (stereo not drawn) [CBK074569],97.7%
18,O=C(O)CCN1CCCCC1 [CBK012168C],103%
19,CC(C)NC(=O)c1cc(C2CCN(C(=O)CCCc3ccc(F)cc3)C2)nc2ccccc12 (stereo not drawn) [CBK285921],95.2%
20,O=C(NC(=S)Nc1ccc(N2CCN(Cc3ccccc3Cl)CC2)cc1)c1ccco1 [CBK266066],101%
21,COCCN1CCn2c(nc3cc(NC(=O)c4ccccc4)ccc32)C1 [CBK307410],89.4%
22,CC(C)c1ccc(S(=O)(=O)Nc2ccc3[nH]c(C(F)(F)F)nc3c2)cc1 [CBK044470],90.3%

row,SMILES,"viability at 28.5 h, 10 µM"
1,C/C=C/c1ccc(OCCCSc2ccc(Cl)cc2)c(OC)c1 [CBK264147],97.5%
2,N#Cc1c(SCC(=O)O)nc(-c2cccs2)c2c1CCCC2 [CBK269858],103%
3,CCn1c(=O)[nH]c2cc(C(=O)NCCc3ccccc3)ccc2c1=O [CBK265773],95.2%
4,CCN(C(=O)Cn1c(C)cc(=O)c2ccccc21)C1CCOC(C)(C)C1 (stereo not drawn) [CBK306797],93.6%
5,S=C(NCC1CCN(C(=S)NC2CCCCC2)CC1)NC1CCCCC1 [CBK004987],87.7%
6,Cc1cccn2c(=O)cc(CN3CCCC(N4CCNC4=O)C3)nc12 (stereo not drawn) [CBK304947],88.4%
7,O=[N+]([O-])c1ccc(N2CCN(CCO)CC2)cc1NCc1ccc(Cl)cc1 [CBK042201],99.6%
8,O=C1C[C@@H]2CCN(C(=O)COc3ccccc3)C[C@@H]2CCN1Cc1cccnc1 [CBK288793],82%
9,Cc1ccc(C)c(NC(=O)C2CN(S(=O)(=O)c3ccccc3)CCN2S(=O)(=O)c2ccccc2)c1 (stereo not drawn) [CBK267349],93.5%
10,COc1cc(/C=C2/SC(=S)N(CCC(=O)N3CCN(C)CC3)C2=O)cc(OC)c1OC [CBK263656],88.1%
11,CCOc1ccc(C(=O)Nc2nc(-c3ccc(F)cc3)cs2)cc1 [CBK072020],91%
12,COc1cc(-c2nccnc2N[C@@H](CO)C(C)C)cc(OC)c1OC [CBK038023],111%
13,OCc1ccccc1-c1cncc(NCCc2c[nH]c3ccccc23)n1 [CBK037852],93.2%
14,Cc1ncccc1C(=O)N1CCN(Cc2ccccc2)CC1 [CBK200171],97.7%
15,Cc1nsc(NCc2ccccc2CN2CCC(O)CC2)c1C#N [CBK304695],95.1%
16,CCc1nc(C(N)=O)c2[nH]c(=O)n(-c3ccccc3F)c2n1 [CBK287739],107%
17,CCn1c(=O)n(CC(C)(C)O)c2cc(S(=O)(=O)N(C)C)ccc21 [CBK304893],92.8%
18,CN(C)CCN(C)C(=O)c1ccc(-c2ccccc2)nc1N(C)C [CBK106070],88.1%
19,CC(C)(C)C1CCC(=NNC(=O)c2ccc(CN3CCOCC3)cc2)CC1 (stereo not drawn) [CBK018812],97.9%
20,S=C(NCCN1CCCCC1)NCc1ccco1 [CBK268171],107%

# Same assay, conditions: human, hela cells, % viability, bulk resorufin, single well
row,SMILES,"viability at 28.5 h, 10 µM"
1,O=C(O)COc1c(Cl)cc(/C=C2\C(=O)NC(=S)N(c3ccc(F)cc3)C2=O)cc1Cl [CBK263391],107%
